# In US20060265776A1, “Viability” (priority 2003, published 2006):
# “Also recorded” adds a separate entry of the source.
# Tests used:
# [1] = test system: Arabidopsis thaliana cell suspension cultures; type: cell-based
# Experimental: A. thaliana cell cultures were grown as described in example 1. Aliquots of the cell suspension (1.5 mL) were treated with a final concentration of 0, 20, 50, or 100 units/mL of apyrase. […] The dead cells had become buoyant and adhered to the walls of the vials, forming a ring just above the edge of the swirling medium. The ring of cells was sometimes dislodged and fell into the medium, resulting in apyrase-treated cultures having flakes of dead cells at the bottom of the vials.
# To quantify the effect of apyrase on cell viability, the ability of the cells to grow and multiply subsequent to treatment was measured after diluting the cultures by over 30 times in fresh medium not containing any additives. This was achieved by transferring the cells treated for 3 days to 50 mL of fresh growth medium and allowing them to grow for a further 4 days. At the end of this period, triplicate 1 mL aliquots were sampled from the cultures and the volume of the cells was measured and expressed as a percentage of the culture volume. The method used to determine the packed cell volume was as follows: 1 mL cell culture aliquots were placed in 1.5 mL microfuge tubes and the cells gently compacted by centrifuging (1000 rpm., 10 minutes) in a swing-out rotor (Grundrotor 11030; Sigma laborzentrifugen GmbH, Oestrode, Germany). The level of the cells was marked on the wall of the tube and the volume of cells determined by measuring the volume of water needed to fill the tube to the marked level. The packed cell volume was expressed as the volume occupied by cells as a percentage of 1000 μL.
# In each case the error bars represent the standard deviation.
# [2] = test system: Black Mexican sweet corn cells; experiment: Cell viability of corn suspension cells; type: cell-based, Zea mays; settings: 1 mM ATP, 1 mM AMP-PCP, 100 units/mL apyrase, 200 units/mL hexokinase; 100 mM glucose in culture
# [3] = test system: Tobacco (Nicotiana tabacum), Arabidopsis, and bean (Phaseolus vulgaris) plants; experiment: Leaf infiltration of extracellular ATP depletion systems, whole plants; type: in vivo; settings: 0.5 units/μL apyrase, 1.85 units/μL hexokinase plus 100 mM glucose, 1-5 mM AMP-PCP (pH 6.5); ATP (pH 6.5)
# Experimental: (§1) Tobacco (Nicotiana tabacum), Arabidopsis, and bean (Phaseolus vulgaris) plants were sown in soil and raised in a growth cabinet with a 16-hour photoperiod at 20° C. and 8 hours of darkness at 15° C. The relative humidity was maintained at 60% and the photon flux density was 250 μmolm^−2 s^−1. […] Only the cotyledons of bean plants were treated. The abaxial surface of a small zone of leaf tissue was treated by infiltrating the apoplast with the solution using a syringe and hypodermic needle. The three test solutions had the following concentrations of either: 0.5 units/μL apyrase, 1.85 units/μL hexokinase plus 100 mM glucose, or 1-5 mM AMP-PCP (pH 6.5).
# The concentrations used were the same as defined above unless stated otherwise.
# [4] = test system: Arabidopsis thaliana cell suspension cultures; experiment: Viability staining with fluorescein diacetate and propidium iodide; type: cell-based; settings: apyrase-treated cultures, 3 days
# Experimental: The inventors decided to use viability staining to confirm cell death in these cell cultures. To achieve this, […] aliquots were removed from the cultures and the cells resuspended in 0.2M CaCl2 after removal of the growth medium. The aliquots were doubly-stained by incubating for 5 minutes with a final concentration of 25 μg/mL fluorescein diacetate [0.5% (w/v) stock solution in acetone] and 50 μg/mL propidium iodide [10 mg/mL stock solution in phosphate-buffered saline pH 7.4]. […] The viable cells had also excluded propidium iodide, which is non-permeative and can only cross membranes of dead or dying cells. Dead cells had taken up propidium iodide, which binds to DNA, resulting in nuclei emitting a very intense red fluorescence.
# bean plants = experiment: Leaf infiltration, bean; type: in vivo, Phaseolus vulgaris; settings: apyrase, hexokinase; 100 mM glucose
# Experimental: as §1
# tobacco leaves = experiment: Leaf infiltration, tobacco; type: in vivo, Nicotiana tabacum
# Experimental: as §1
substance,measurement,setting,value
apyrase,loss in viability,[1],over 80%
same,cell death seen in cultures,"[1]; 20, 50 or 100 units/mL apyrase, incubated for 3 days",showed a significant frequency of cell death
same,"cell viability with increasing concentration (dose-response), in words","[1]; apyrase 0-100 units/mL, hexokinase 0-200 units/mL with 100 mM glucose, AMP-PCP 0-1.5 mM",progressive decrease in cell viability
same,viability of corn cells,[2],caused significant cell death
same,necrotic lesions after local leaf infiltration,[3],development of necrotic lesions in the area where the application was made within 2 days of treatment; also recorded: localised necrotic lesions
same,dead cells by viability staining,[4],significantly high proportion of cells in the apyrase-treated cell cultures was dead
same,necrotic lesions on bean leaves,bean plants,development of necrotic lesions on leaves
same,local tissue death after infiltration of tobacco leaves,"tobacco leaves; 1 mM AMP-PCP, 1 mM ATP, apyrase, hexokinase plus glucose",development of localised necrotic lesions
same,state of tobacco plant after treatment of a leaf,"tobacco leaves; 5 mM AMP-PCP or equivalent amount of ATP, after 4 days",Comparable results
